PubChem BioAssay (NCI)
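Five compound concentrations were applied to cells in 96-well plates for 48 hours; endpoints were derived by simple linear interpolation of the resulting dose-response curve. The concentration for 50% growth inhibition is given as GI50. TGI: concentration producing complete growth inhibition.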

Key:
Test in all cases: NCI anticancer screen, dose series, 48 h
RPMI-8226 leukemia = system: RPMI-8226 leukemia
MDA-MB-231 breast = system: MDA-MB-231 breast
UACC-257 melanoma = system: UACC-257 melanoma
MALME-3M melanoma = system: MALME-3M melanoma
HCC-2998 colon = system: HCC-2998 colon
MOLT-4 leukemia = system: MOLT-4 leukemia
T-47D breast = system: T-47D breast
UO-31 renal = system: UO-31 renal
OVCAR-8 ovarian = system: OVCAR-8 ovarian
NCI-H522 lung = system: NCI-H522 lung
OVCAR-5 ovarian = system: OVCAR-5 ovarian
A549 NSCLC = system: A549 NSCLC
OVCAR-3 ovarian = system: OVCAR-3 ovarian
HCT-116 colon = system: HCT-116 colon
SF-539 CNS = system: SF-539 CNS
U251 CNS = system: U251 CNS
SR leukemia = system: SR leukemia
IGROV1 ovarian = system: IGROV1 ovarian
786-0 renal = system: 786-0 renal
K-562 leukemia = system: K-562 leukemia
NCI-H23 lung = system: NCI-H23 lung
LOX IMVI melanoma = system: LOX IMVI melanoma
SK-MEL-5 melanoma = system: SK-MEL-5 melanoma
KM12 colon = system: KM12 colon
UACC-62 melanoma = system: UACC-62 melanoma
SK-OV-3 ovarian = system: SK-OV-3 ovarian
A498 renal = system: A498 renal
BT-549 breast = system: BT-549 breast
SK-MEL-28 melanoma = system: SK-MEL-28 melanoma
CAKI-1 renal = system: CAKI-1 renal
TK-10 renal = system: TK-10 renal
SK-MEL-2 melanoma = system: SK-MEL-2 melanoma
NCI-H226 lung = system: NCI-H226 lung
HCT-15 colon = system: HCT-15 colon
HOP-62 NSCLC = system: HOP-62 NSCLC
MCF7 breast = system: MCF7 breast
CCRF-CEM leukemia = system: CCRF-CEM leukemia
SN12C renal = system: SN12C renal
DU-145 prostate = system: DU-145 prostate
NCI/ADR-RES ovarian = system: NCI/ADR-RES ovarian
HL-60(TB) leukemia = system: HL-60(TB) leukemia
MDA-MB-435 = system: MDA-MB-435
OVCAR-4 ovarian = system: OVCAR-4 ovarian
SW-620 colon = system: SW-620 colon
HOP-92 NSCLC = system: HOP-92 NSCLC
SNB-19 CNS = system: SNB-19 CNS
ACHN renal = system: ACHN renal
SNB-75 CNS = system: SNB-75 CNS
SF-268 CNS = system: SF-268 CNS
NCI-H460 lung = system: NCI-H460 lung
EKVX NSCLC = system: EKVX NSCLC
M14 melanoma = system: M14 melanoma
SF-295 CNS = system: SF-295 CNS
PC-3 prostate = system: PC-3 prostate
RXF 393 renal = system: RXF 393 renal
COLO 205 colon = system: COLO 205 colon
HT29 colon = system: HT29 colon

Work on `COc1ccc2c(c1)[nH]c(=O)c1c3cc(OC)ccc3cn21` yielded a GI50 (RPMI-8226 leukemia) of 16 nM, a TGI (RPMI-8226 leukemia) of 87.4 nM and a GI50 (MDA-MB-231 breast) of 43.1 nM. It also gave a TGI (MDA-MB-231 breast) of 985 nM, a GI50 (UACC-257 melanoma) of 14600 nM and a TGI (UACC-257 melanoma) of 29100 nM. For the same molecule, the GI50 (MALME-3M melanoma) was 139 nM, the TGI (MALME-3M melanoma) was 1880 nM and the GI50 (HCC-2998 colon) was 15.9 nM. The TGI (HCC-2998 colon) was 70.1 nM, the GI50 (MOLT-4 leukemia) was less than 14.5 nM and the TGI (MOLT-4 leukemia) was 788 nM. For the same molecule, the GI50 (T-47D breast) was 1030 nM, the TGI (T-47D breast) was 3240 nM and the GI50 (UO-31 renal) was 28 nM. For the same molecule, the TGI (UO-31 renal) was 1900 nM, the GI50 (OVCAR-8 ovarian) was 34.3 nM and the TGI (OVCAR-8 ovarian) was 1570 nM. For the same molecule, the GI50 (NCI-H522 lung) was 22 nM, the TGI (NCI-H522 lung) was 564 nM and the GI50 (OVCAR-5 ovarian) was 54.5 nM. For the same molecule, the TGI (OVCAR-5 ovarian) was 2300 nM, the GI50 (A549 NSCLC) was 26.5 nM and the TGI (A549 NSCLC) was 1280 nM. It also gave a GI50 (OVCAR-3 ovarian) of less than 10 nM, a TGI (OVCAR-3 ovarian) of 20.4 nM and a GI50 (HCT-116 colon) of less than 10 nM. The TGI (HCT-116 colon) was 1080 nM, the GI50 (SF-539 CNS) was 17.9 nM and the TGI (SF-539 CNS) was 49.8 nM. For the same molecule, the GI50 (U251 CNS) was less than 10 nM, the TGI (U251 CNS) was 1230 nM and the GI50 (SR leukemia) was less than 10.6 nM. It also gave a TGI (SR leukemia) of 62 nM, a GI50 (IGROV1 ovarian) of 15.7 nM and a TGI (IGROV1 ovarian) of 1180 nM. It also gave a GI50 (786-0 renal) of 45.3 nM, a TGI (786-0 renal) of 1560 nM and a GI50 (K-562 leukemia) of less than 10 nM. The TGI (K-562 leukemia) was 48.6 nM, the GI50 (NCI-H23 lung) was 46 nM and the TGI (NCI-H23 lung) was 1120 nM. The GI50 (LOX IMVI melanoma) was 26.9 nM, the TGI (LOX IMVI melanoma) was 1680 nM and the GI50 (SK-MEL-5 melanoma) was less than 12.8 nM. The TGI (SK-MEL-5 melanoma) was 116 nM, the GI50 (KM12 colon) was less than 10 nM and the TGI (KM12 colon) was 393 nM. The GI50 (UACC-62 melanoma) was less than 10 nM, the TGI (UACC-62 melanoma) was 1400 nM and the GI50 (SK-OV-3 ovarian) was 52.2 nM. It also gave a TGI (SK-OV-3 ovarian) of 4200 nM, a GI50 (A498 renal) of less than 10.4 nM and a TGI (A498 renal) of 1350 nM. It also gave a GI50 (BT-549 breast) of less than 31 nM, a TGI (BT-549 breast) of 1190 nM and a GI50 (SK-MEL-28 melanoma) of 10.2 nM. The TGI (SK-MEL-28 melanoma) was 2010 nM, the GI50 (CAKI-1 renal) was less than 10 nM and the TGI (CAKI-1 renal) was less than 10 nM. The GI50 (TK-10 renal) was 374 nM, the TGI (TK-10 renal) was 1790 nM and the GI50 (SK-MEL-2 melanoma) was 53.8 nM. The TGI (SK-MEL-2 melanoma) was 2430 nM, the GI50 (NCI-H226 lung) was 262 nM and the TGI (NCI-H226 lung) was 17400 nM. The GI50 (HCT-15 colon) was less than 10 nM, the TGI (HCT-15 colon) was 653 nM and the GI50 (HOP-62 NSCLC) was 179 nM. For the same molecule, the TGI (HOP-62 NSCLC) was 2050 nM, the GI50 (MCF7 breast) was 27.7 nM and the TGI (MCF7 breast) was 597 nM. For the same molecule, the GI50 (CCRF-CEM leukemia) was less than 13.2 nM, the TGI (CCRF-CEM leukemia) was 75.1 nM and the GI50 (SN12C renal) was 36.2 nM. For the same molecule, the TGI (SN12C renal) was 2300 nM, the GI50 (DU-145 prostate) was less than 19 nM and the TGI (DU-145 prostate) was 256 nM. For the same molecule, the GI50 (NCI/ADR-RES ovarian) was less than 10 nM, the TGI (NCI/ADR-RES ovarian) was 20 nM and the GI50 (HL-60(TB) leukemia) was less than 10 nM. It also gave a TGI (HL-60(TB) leukemia) of less than 10 nM, a GI50 (MDA-MB-435) of less than 10 nM and a TGI (MDA-MB-435) of less than 10 nM. It also gave a GI50 (OVCAR-4 ovarian) of 50 nM, a TGI (OVCAR-4 ovarian) of 1820 nM and a GI50 (SW-620 colon) of less than 10 nM. For the same molecule, the TGI (SW-620 colon) was 1310 nM, the GI50 (HOP-92 NSCLC) was 210 nM and the TGI (HOP-92 NSCLC) was 2090 nM. For the same molecule, the GI50 (SNB-19 CNS) was 77.4 nM, the TGI (SNB-19 CNS) was 4320 nM and the GI50 (ACHN renal) was 19.9 nM. For the same molecule, the TGI (ACHN renal) was 1550 nM, the GI50 (SNB-75 CNS) was 18.7 nM and the TGI (SNB-75 CNS) was 1610 nM. The GI50 (SF-268 CNS) was less than 15.4 nM, the TGI (SF-268 CNS) was 1440 nM and the GI50 (NCI-H460 lung) was 28.2 nM. It also gave a TGI (NCI-H460 lung) of 363 nM, a GI50 (EKVX NSCLC) of 72.8 nM and a TGI (EKVX NSCLC) of 2670 nM. It also gave a GI50 (M14 melanoma) of less than 10 nM, a TGI (M14 melanoma) of 1340 nM and a GI50 (SF-295 CNS) of less than 10 nM. It also gave a TGI (SF-295 CNS) of 180 nM, a GI50 (PC-3 prostate) of less than 10.4 nM and a TGI (PC-3 prostate) of 1520 nM. The GI50 (RXF 393 renal) was less than 10 nM, the TGI (RXF 393 renal) was 274 nM and the GI50 (COLO 205 colon) was 27.4 nM. The TGI (COLO 205 colon) was 92.3 nM, the GI50 (HT29 colon) was less than 14.3 nM and the TGI (HT29 colon) was 280 nM.
